This is an account of results in US12187709B2 (Genentech, Inc., priority 2021, dated 2025).

One assay deals with c-Cbl (Homo sapiens (Human), UniProt P22681). In words: C-Cbl LCK Ub TR-FRET assay (C-cbl Lck HTRF). Format: biochemical. Summed up:
(§1)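 After the ubiquitination reaction, detection mixture was added and plates incubated 20 min at room temperature before reading. IC50 values were calculated with wells lacking LCK as the low control and DMSO as the high control.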

The next assay has as its target c-Cbl (residues 47-435) (Homo sapiens (Human), UniProt P22681). The experiment in a line: c-Cbl SPR assay. Format: binding. The settings on record: 20° C. The essentials:
(§2)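 First, protein is captured to 1300-1500 RU. Then compound runs in single cycle kinetics, a blank plus 5 two-fold concentrations up to 500 nM (120 s contact, 50 μl/min, 450 s dissociation). Chaser injections (20 s, 30 μl/min) track occupancy, giving kd, which is fixed when fitting the titration.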

The target of assay [1] is Human Cbl-b (residues 40-426) (Homo sapiens (Human), UniProt Q13191). The experiment in a line: Cbl-b SPR assay. The format is binding. To be noted: for Fold of selectivity: C-cbl SPR Kd vs Cbl-b SPR Kd; for Kd: SPR, 20° C. The essentials: as §2
In another assay the target is Cbl-b (Homo sapiens (Human), UniProt Q13191). In words: Cbl-b LCK Ub TR-FRET assay (Cbl-b Lck HTRF). The settings on record: for IC50: Cbl-b LCK Ub TR-FRET, Example 121; for (fold-selectivity) Cbl-b and C-Cbl Selectivity: ratio C-cbl Lck HTRF IC50 / Cbl-b Lck HTRF IC50. Format: biochemical. The essentials:
as §1

Chain of c-Cbl (P22681 47-435): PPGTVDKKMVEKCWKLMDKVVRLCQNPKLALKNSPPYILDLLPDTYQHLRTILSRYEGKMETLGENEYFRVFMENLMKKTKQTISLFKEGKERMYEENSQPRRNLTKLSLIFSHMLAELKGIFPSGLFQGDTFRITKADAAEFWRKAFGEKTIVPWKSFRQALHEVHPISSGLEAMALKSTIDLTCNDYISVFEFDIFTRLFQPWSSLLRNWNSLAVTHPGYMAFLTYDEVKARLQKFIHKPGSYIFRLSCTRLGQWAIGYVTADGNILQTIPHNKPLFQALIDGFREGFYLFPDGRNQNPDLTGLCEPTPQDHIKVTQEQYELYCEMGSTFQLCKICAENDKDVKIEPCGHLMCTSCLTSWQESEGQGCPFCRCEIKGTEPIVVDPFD
Chain of c-Cbl (residues 47-435) (P22681 47-435): as above
Chain of Human Cbl-b (residues 40-426) (Q13191 40-426): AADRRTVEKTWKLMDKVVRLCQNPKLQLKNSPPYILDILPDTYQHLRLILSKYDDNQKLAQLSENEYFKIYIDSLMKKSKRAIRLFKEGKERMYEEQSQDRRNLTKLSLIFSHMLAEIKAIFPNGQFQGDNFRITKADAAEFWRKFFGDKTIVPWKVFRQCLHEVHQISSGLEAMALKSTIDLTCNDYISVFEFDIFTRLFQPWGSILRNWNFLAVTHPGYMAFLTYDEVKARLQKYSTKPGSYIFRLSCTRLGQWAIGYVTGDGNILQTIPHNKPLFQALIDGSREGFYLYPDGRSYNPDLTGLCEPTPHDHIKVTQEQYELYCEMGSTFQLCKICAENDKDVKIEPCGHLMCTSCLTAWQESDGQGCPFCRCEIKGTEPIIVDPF
Chain of Cbl-b (Q13191 40-426): as above

`CO[C@H]1C[C@](c2cccc(N3Cc4c(cc(CNC5CC(C(F)F)C5)cc4C(F)(F)F)C3=O)c2)(c2nncn2C)C1` (stereo partly drawn) [Compound 494, 6-(((3-(difluoromethyl)cyclobutyl)amino)methyl)-2-(3-((1r,3r)-3-methoxy-1-(4-methyl-4H-1,2,4-triazol-3-yl)cyclobutyl)phenyl)-4-(trifluoromethyl)isoindolin-1-one] returned an IC50 at c-Cbl of 25 nM. Also, the Kd at c-Cbl (residues 47-435) is 20 nM. In assay [1], this molecule came in with a Fold of selectivity of 11× and a Kd of 1.8 nM. Besides, at Cbl-b, half-maximal inhibition (IC50) required 8.3 nM; the “(fold-selectivity) Cbl-b and C-Cbl Selectivity” value was 3.1x.

`COCC1(NCc2cc3c(c(C(F)(F)F)c2)CN(c2cccc([C@]4(c5nncn5C)C[C@H](OC)C4)c2)C3=O)CCC1` [Compound 495, 2-(3-((1r,3r)-3-methoxy-1-(4-methyl-4H-1,2,4-triazol-3-yl)cyclobutyl)phenyl)-6-(((1-(methoxymethyl)cyclobutyl)amino)methyl)-4-(trifluoromethyl)isoindolin-1-one]: the IC50 against c-Cbl was 110 nM; at Cbl-b, 18 nM. Further, the Kd came out at 110 nM at c-Cbl (residues 47-435) and 8.5 nM in assay [1]. The molecule further showed a Fold of selectivity in assay [1] of 12×. Further, the “(fold-selectivity) Cbl-b and C-Cbl Selectivity” value on Cbl-b was found to be 6.7x.

As for `CO[C@H]1C[C@](c2cccc(N3Cc4c(cc(CNCC5(CF)CC5)cc4C(F)(F)F)C3=O)c2)(c2nncn2C)C1` [Compound 496, 6-((((1-(fluoromethyl)cyclopropyl)methyl)amino)meth-yl)-2-(3-((1r,3r)-3-methoxy-1-(4-methyl-4H-1,2,4-triazol-3-yl)cyclobutyl)phenyl)-4-(trifluoromethyl)isoindolin-1-one], the IC50 amounted to 87 nM on c-Cbl and 17 nM on Cbl-b. For the same molecule, the Kd is 73 nM at c-Cbl (residues 47-435) and 6.1 nM in assay [1]. The molecule further came in with a Fold of selectivity in assay [1] of 12×. Also, the “(fold-selectivity) Cbl-b and C-Cbl Selectivity” value on Cbl-b came to 5.2x.

Take `CO[C@H]1C[C@](c2cccc(N3Cc4c(cc(CNC5CC(C)(F)C5)cc4C(F)(F)F)C3=O)c2)(c2nncn2C)C1` (stereo partly drawn) [Compound 497, 6-(((3-fluoro-3-methylcyclobutyl)amino)methyl)-2-(3-((1r,3r)-3-methoxy-1-(4-methyl-4H-1,2,4-triazol-3-yl)cyclobutyl)phenyl)-4-(trifluoromethyl)isoindolin-1-one]: the IC50 was found to be 24 nM at c-Cbl and 5.2 nM against Cbl-b. In addition, the Kd is 26.6 nM on c-Cbl (residues 47-435) and 1.9 nM in assay [1]. In addition, the Fold of selectivity in assay [1] turned out to be 14×. Moreover, on Cbl-b, the “(fold-selectivity) Cbl-b and C-Cbl Selectivity” value is listed as 4.7x.

As to `CO[C@H]1C[C@](c2cccc(N3Cc4c(cc(CNC5CC6CC6C5)cc4C(F)(F)F)C3=O)c2)(c2nncn2C)C1` (stereo partly drawn) [Compound 498, 6-((bicyclo[3.1.0]hexan-3-ylamino)methyl)-2-(3-((1r,3r)-3-methoxy-1-(4-methyl-4H-1,2,4-triazol-3-yl)cyclobutyl)phenyl)-4-(trifluoromethyl)isoindolin-1-one], the IC50 against c-Cbl was found to be 15 nM. Moreover, on c-Cbl (residues 47-435), binding was characterised by a dissociation constant (Kd) of 13 nM. In assay [1], this molecule showed a Fold of selectivity of 16× and a Kd of 0.8 nM. Moreover, on Cbl-b, the IC50 turned out to be 4.1 nM; the “(fold-selectivity) Cbl-b and C-Cbl Selectivity” value was 3.6x.

For the molecule `CO[C@H]1C[C@](c2cccc(N3Cc4c(cc(CNCCC5CCC5(F)F)cc4C(F)(F)F)C3=O)c2)(c2nncn2C)C1` (stereo partly drawn) [Compound 499, 6-(((2-(2,2-difluorocyclobutyl)ethyl)amino)methyl)-2-(3-((1r,3r)-3-methoxy-1-(4-methyl-4H-1,2,4-triazol-3-yl)cyclobutyl)phenyl)-4-(trifluoromethyl)isoindolin-1-one], the IC50 worked out at 78 nM on c-Cbl and 16 nM against Cbl-b. In addition, the Kd at c-Cbl (residues 47-435) came out at 79 nM; in assay [1], 3.7 nM. In assay [1], the Fold of selectivity came out at 19×. In addition, on Cbl-b, the “(fold-selectivity) Cbl-b and C-Cbl Selectivity” value is reported as 5.0x.

In the case of `CO[C@H]1C[C@](c2cccc(N3Cc4c(cc(CNC5C[C@@H]6C[C@H]5CO6)cc4C(F)(F)F)C3=O)c2)(c2nncn2C)C1` (stereo partly drawn) [Compound 500, 6-((2-oxabicyclo[2.2.1]heptan-5-ylamino)methyl)-2-(3-((1r,3r)-3-methoxy-1-(4-methyl-4H-1,2,4-triazol-3-y)cyclobutyl)phenyl)-4-(trifluoromethyl)isoindolin-1-one], on c-Cbl, inhibition was half-maximal at 85 nM (IC50). On c-Cbl (residues 47-435), this molecule displayed a Kd of 120 nM. In assay [1], the Fold of selectivity came out at 12× and the Kd is 10 nM. Moreover, on Cbl-b, the IC50 was 16 nM; the “(fold-selectivity) Cbl-b and C-Cbl Selectivity” value was 5.3x.

For `CO[C@H]1C[C@](c2cccc(N3Cc4c(cc(CNCC5(C)CC5(F)F)cc4C(F)(F)F)C3=O)c2)(c2nncn2C)C1` (stereo partly drawn) [Compound 501, 6-((((2,2-difluoro-1-methylcyclopropyl)methyl)amino)methyl)-2-(3-((1r,3r)-3-methoxy-1-(4-methyl-4H-1,2,4-triazol-3-yl)cyclobutyl)phenyl)-4-(trifluoromethyl)isoindolin-1-one], the IC50 on c-Cbl was 52 nM. Besides, the Kd at c-Cbl (residues 47-435) turned out to be 81 nM. Moreover, in assay [1], the Fold of selectivity was found to be 16× and the Kd amounted to 4.6 nM. In addition, on Cbl-b, the IC50 stood at 11 nM; the “(fold-selectivity) Cbl-b and C-Cbl Selectivity” value is given as 4.8x.

Consider `CO[C@H]1C[C@](c2cccc(N3Cc4c(cc(CN[C@@H]5C[C@H]5C)cc4C(F)(F)F)C3=O)c2)(c2nncn2C)C1` [Compound 502, 2-(3-((1r,3R)-3-methoxy-1-(4-methyl-4H-1,2,4-triazol-3-yl)cyclobutyl)phenyl)-6-((((1R,2R)-2-methylcyclopropyl)amino)methyl)-4-(trifluoromethyl)isoindolin-1-one], for which, on c-Cbl, the IC50 was found to be 39 nM. Besides, at c-Cbl (residues 47-435), the Kd was 69 nM. In assay [1], this molecule registered a Fold of selectivity of 14× and a Kd of 5 nM. Besides, on Cbl-b, half-maximal inhibition (IC50) required 9.4 nM; the “(fold-selectivity) Cbl-b and C-Cbl Selectivity” value is given as 4.1x.

For the molecule `CO[C@H]1C[C@](c2cccc(N3Cc4c(cc(CNC[C@@H]5[C@@H](C)C5(F)F)cc4C(F)(F)F)C3=O)c2)(c2nncn2C)C1` [Compound 503, 6-(((((1S,3R)-2,2-difluoro-3-methylcyclopropyl)methyl)amino)methyl)-2-(3-((1r,3S)-3-methoxy-1-(4-methyl-4H-1,2,4-triazol-3-yl)cyclobutyl)phenyl)-4-(trifluoromethyl)isoindolin-1-one], the results for the IC50 against c-Cbl and at Cbl-b were 26 nM and 8.5 nM, respectively. Further, the results for the dissociation constant Kd (at c-Cbl (residues 47-435); in assay [1]) were 44 nM and 2 nM, respectively. In assay [1], the Fold of selectivity is 22×. Moreover, the “(fold-selectivity) Cbl-b and C-Cbl Selectivity” value on Cbl-b came out at 3.0x.

As for `CO[C@H]1C[C@](c2cccc(N3Cc4c(cc(CNC5CC6(C5)CC6F)cc4C(F)(F)F)C3=O)c2)(c2nncn2C)C1` (stereo partly drawn) [Compound 504, 6-(((1-fluorospiro[2.3]hexan-5-yl)amino)methyl)-2-(3-((1r,3r)-3-methoxy-1-(4-methyl-4H-1,2,4-triazol-3-yl)cyclobutyl)phenyl)-4-(trifluoromethyl)isoindolin-1-one], the IC50 against c-Cbl amounted to 68 nM. Also, the Kd at c-Cbl (residues 47-435) stood at 90 nM. Besides, in assay [1], the Fold of selectivity is 16× and the Kd came out at 5.7 nM. For the same molecule, at Cbl-b, the IC50 is 13 nM; the “(fold-selectivity) Cbl-b and C-Cbl Selectivity” value is reported as 5.1x.

As for `CO[C@H]1C[C@](c2cccc(N3Cc4c(cc(CNC5CC(C#N)C5)cc4C(F)(F)F)C3=O)c2)(c2nncn2C)C1` (stereo partly drawn) [Compound 505, 3-(((2-(3-((1r,3r)-3-methoxy-1-(4-methyl-4H-1,2,4-triazol-3-yl)cyclobutyl)phenyl)-3-oxo-7-(trifluoromethyl)isoindolin-5-yl)methyl)amino)cyclobutanecarbonitrile], the IC50 at c-Cbl was 30 nM. Binding on c-Cbl (residues 47-435) was characterised by a dissociation constant (Kd) of 64 nM. Besides, in assay [1], the Fold of selectivity was determined as 12× and binding was put at a Kd of 4.7 nM. Besides, at Cbl-b, the half-inhibitory concentration (IC50) came to 7.3 nM; the “(fold-selectivity) Cbl-b and C-Cbl Selectivity” value was 4.1x.

The molecule `CO[C@H]1C[C@](c2cccc(N3Cc4c(cc(CNCC5(CF)CCC5)cc4C(F)(F)F)C3=O)c2)(c2nncn2C)C1` [Compound 507, 6-((((1-(fluoromethyl)cyclobutyl)methyl)amino)meth-yl)-2-(3-((1r,3r)-3-methoxy-1-(4-methyl-4H-1,2,4-triazol-3-yl)cyclobutyl)phenyl)-4-(trifluoromethyl)isoindolin-1-one] came in with an IC50 against c-Cbl of 42 nM. For the same molecule, at c-Cbl (residues 47-435), the Kd was 52 nM. In addition, in assay [1], the Fold of selectivity is on record as 15× and the Kd was determined as 3.5 nM. For the same molecule, at Cbl-b, 9.3 nM corresponded to half-maximal inhibition (IC50); the “(fold-selectivity) Cbl-b and C-Cbl Selectivity” value was found to be 4.5x.

In the case of `CO[C@H]1C[C@](c2cccc(N3Cc4c(cc(CN[C@@]56CCC[C@@H]5C6)cc4C(F)(F)F)C3=O)c2)(c2nncn2C)C1` [Compound 508, 6-(((1R,5R)-bicyclo[3.1.0]hexan-1-ylamino)methyl)-2-(3-((1r,3R)-3-methoxy-1-(4-methyl-4H-1,2,4-triazol-3-yl)cyclobutyl)phenyl)-4-(trifluoromethyl)isoindolin-1-one], the IC50 on c-Cbl stood at 24 nM; at Cbl-b, 6.2 nM. The values for the Kd (at c-Cbl (residues 47-435); in assay [1]) were 24 nM and 1.7 nM, respectively. This molecule yielded a Fold of selectivity in assay [1] of 14×. Further, on Cbl-b, the “(fold-selectivity) Cbl-b and C-Cbl Selectivity” value was found to be 3.8x.
